From the NIST ThermoML archive (doi:10.1021/je060411g)
Numbers after ± are expanded uncertainties.

Experiment: molar heat capacity at constant pressure
Settings: 101.33 kPa

CCC(C)CO (stereo not given) [2-methyl-1-butanol]
Settings	molar heat capacity at constant pressure [J/K/mol]
84.68 K, Glass	66.37 ± 1.6
85.32 K, Glass	66.9 ± 1.7
86.62 K, Glass	68.05 ± 1.7
88.13 K, Glass	68.63 ± 1.7
88.55 K, Glass	69.49 ± 1.7
89.15 K, Glass	69.5 ± 1.7
90.45 K, Glass	69.12 ± 2.1
90.85 K, Glass	70.72 ± 2.1
92.36 K, Glass	71.63 ± 2.1
92.5 K, Glass	69.54 ± 2.1
92.77 K, Glass	72.07 ± 2.1
93.04 K, Glass	72.48 ± 2.1
94.27 K, Glass	72.89 ± 2.1
94.29 K, Glass	72.88 ± 2.1
94.69 K, Glass	73.39 ± 2.1
96.19 K, Glass	74.2 ± 2.1
96.22 K, Glass	74.42 ± 2.1
96.61 K, Glass	74.74 ± 2.2
98.11 K, Glass	75.66 ± 2.2
98.15 K, Glass	75.92 ± 2.2
98.53 K, Glass	76.35 ± 2.2
100.03 K, Glass	77.35 ± 2.2
100.07 K, Glass	77.68 ± 2.2
100.45 K, Glass	77.93 ± 2.2
101.96 K, Glass	78.33 ± 2.2
101.99 K, Glass	78.7 ± 2.2
102.38 K, Glass	78.97 ± 2.2
103.89 K, Glass	79.44 ± 2.2
103.92 K, Glass	79.95 ± 2.2
104.32 K, Glass	80.34 ± 2.3
105.82 K, Glass	80.96 ± 2.3
105.85 K, Glass	81.54 ± 2.3
106.25 K, Glass	82 ± 2.3
107.75 K, Glass	82.7 ± 2.3
107.79 K, Glass	83.22 ± 2.3
108.19 K, Glass	83.82 ± 2.3
109.68 K, Glass	84.31 ± 2.3
109.72 K, Glass	84.61 ± 2.3
110.13 K, Glass	85.55 ± 2.4
111.62 K, Glass	86.17 ± 2.4
111.66 K, Glass	86.13 ± 2.4
112.07 K, Glass	87.55 ± 2.4
113.54 K, Glass	88.63 ± 2.4
113.6 K, Glass	88.13 ± 2.4
114.02 K, Glass	89.94 ± 2.4
115.46 K, Glass	92.53 ± 2.5
115.54 K, Glass	91.47 ± 2.5
115.95 K, Glass	93.24 ± 2.5
117.36 K, Glass	100.69 ± 2.7
117.46 K, Glass	98.77 ± 2.6
117.87 K, Glass	98.66 ± 2.6
124.07 K, Liquid	145.49 ± 3.5
124.32 K, Liquid	145.64 ± 3.5
124.62 K, Liquid	145.89 ± 3.5
125.99 K, Liquid	145.72 ± 3.5
126.25 K, Liquid	145.78 ± 3.5
126.56 K, Liquid	145.84 ± 3.5
127.96 K, Liquid	145.9 ± 3.5
128.21 K, Liquid	145.94 ± 3.5
128.53 K, Liquid	145.95 ± 3.5
129.93 K, Liquid	146.02 ± 3.5
130.19 K, Liquid	146.06 ± 3.5
130.5 K, Liquid	146.03 ± 3.5
131.9 K, Liquid	146.08 ± 3.5
132.16 K, Liquid	146.14 ± 3.5
132.47 K, Liquid	146.14 ± 3.5
133.88 K, Liquid	146.23 ± 3.5
134.14 K, Liquid	146.25 ± 3.5
134.45 K, Liquid	146.21 ± 3.5
135.85 K, Liquid	146.27 ± 3.5
136.11 K, Liquid	146.35 ± 3.5
136.42 K, Liquid	146.35 ± 3.5
137.83 K, Liquid	146.45 ± 3.5
138.09 K, Liquid	146.51 ± 3.5
138.4 K, Liquid	146.51 ± 3.5
139.8 K, Liquid	146.64 ± 3.5
140.06 K, Liquid	146.68 ± 3.5
140.37 K, Liquid	146.62 ± 3.5
141.77 K, Liquid	146.82 ± 3.5
142.04 K, Liquid	146.87 ± 3.5
142.35 K, Liquid	146.83 ± 3.5
143.75 K, Liquid	146.95 ± 3.5
144.02 K, Liquid	146.99 ± 3.5
144.32 K, Liquid	146.98 ± 3.5
145.73 K, Liquid	147.13 ± 3.5
145.99 K, Liquid	147.22 ± 3.5
146.3 K, Liquid	147.23 ± 3.5
147.7 K, Liquid	147.38 ± 3.5
147.97 K, Liquid	147.38 ± 3.5
148.27 K, Liquid	147.42 ± 3.5
149.68 K, Liquid	147.55 ± 3.5
149.94 K, Liquid	147.65 ± 3.5
150.25 K, Liquid	147.61 ± 3.5
151.45 K, Liquid	147.59 ± 3.5
151.8 K, Liquid	147.34 ± 3.5
151.92 K, Liquid	147.82 ± 3.5
152.97 K, Liquid	147.67 ± 3.5
153.9 K, Liquid	148.01 ± 3.6
154.95 K, Liquid	148.09 ± 3.6
155.88 K, Liquid	148.33 ± 3.6
156.92 K, Liquid	148.38 ± 3.6
157.86 K, Liquid	148.55 ± 3.6
158.9 K, Liquid	148.61 ± 3.6
159.84 K, Liquid	148.75 ± 3.6
160.88 K, Liquid	148.86 ± 3.6
161.82 K, Liquid	149.02 ± 3.6
162.85 K, Liquid	149.11 ± 3.6
163.8 K, Liquid	149.23 ± 3.6
164.83 K, Liquid	149.31 ± 3.6
165.78 K, Liquid	149.53 ± 3.6
166.81 K, Liquid	149.67 ± 3.6
167.76 K, Liquid	149.85 ± 3.6
168.79 K, Liquid	149.95 ± 3.6
169.74 K, Liquid	150.13 ± 3.6
170.77 K, Liquid	150.21 ± 3.6
171.72 K, Liquid	150.38 ± 3.6
172.75 K, Liquid	150.45 ± 3.6
173.69 K, Liquid	150.67 ± 3.6
174.73 K, Liquid	150.8 ± 3.6
175.67 K, Liquid	150.96 ± 3.6
176.7 K, Liquid	151.12 ± 3.6
177.65 K, Liquid	151.36 ± 3.6
178.68 K, Liquid	151.42 ± 3.6
179.63 K, Liquid	151.66 ± 3.6
180.65 K, Liquid	151.78 ± 3.6
181.61 K, Liquid	151.91 ± 3.6
182.63 K, Liquid	152.05 ± 3.6
183.59 K, Liquid	152.19 ± 3.6
184.61 K, Liquid	152.36 ± 3.6
185.56 K, Liquid	152.59 ± 3.6
186.59 K, Liquid	152.73 ± 3.6
187.54 K, Liquid	152.92 ± 3.6
188.56 K, Liquid	153.02 ± 3.6
189.52 K, Liquid	153.24 ± 3.7
190.54 K, Liquid	153.38 ± 3.7
191.5 K, Liquid	153.55 ± 3.7
192.51 K, Liquid	153.71 ± 3.7
193.48 K, Liquid	153.87 ± 3.7
194.49 K, Liquid	154.12 ± 3.7
195.45 K, Liquid	154.28 ± 3.7
196.47 K, Liquid	154.44 ± 3.7
197.43 K, Liquid	154.67 ± 3.7
198.44 K, Liquid	154.78 ± 3.7
199.4 K, Liquid	155 ± 3.7
200.41 K, Liquid	155.18 ± 3.7
201.38 K, Liquid	155.44 ± 3.7
202.39 K, Liquid	155.73 ± 3.7
203.35 K, Liquid	155.9 ± 3.7
204.36 K, Liquid	156.25 ± 3.7
205.33 K, Liquid	156.37 ± 3.7
206.33 K, Liquid	156.66 ± 3.7
207.3 K, Liquid	156.95 ± 3.7
208.31 K, Liquid	157.5 ± 3.7
209.28 K, Liquid	157.69 ± 3.8
210.28 K, Liquid	158.2 ± 3.8
211.25 K, Liquid	158.49 ± 3.8
212.25 K, Liquid	158.88 ± 3.8
213.22 K, Liquid	159.25 ± 3.8
214.23 K, Liquid	159.75 ± 3.8
215.2 K, Liquid	160.09 ± 3.8
216.21 K, Liquid	160.71 ± 3.8
217.17 K, Liquid	160.99 ± 3.8
218.18 K, Liquid	161.49 ± 3.8
219.15 K, Liquid	161.82 ± 3.8
220.15 K, Liquid	162.39 ± 3.8
221.13 K, Liquid	162.7 ± 3.9
222.13 K, Liquid	163.26 ± 3.9
223.11 K, Liquid	163.61 ± 3.9
224.1 K, Liquid	164.01 ± 3.9
225.09 K, Liquid	164.48 ± 3.9
226.08 K, Liquid	164.73 ± 3.9
227.07 K, Liquid	165.18 ± 3.9
228.06 K, Liquid	165.39 ± 3.9
229.05 K, Liquid	165.83 ± 3.9
230.04 K, Liquid	166.09 ± 3.9
231.03 K, Liquid	166.52 ± 3.9
232.02 K, Liquid	166.86 ± 3.9
233.01 K, Liquid	167.29 ± 3.9
233.99 K, Liquid	167.66 ± 4
234.99 K, Liquid	168.13 ± 4
235.97 K, Liquid	168.53 ± 4
236.96 K, Liquid	169 ± 4
237.94 K, Liquid	169.41 ± 4
238.94 K, Liquid	169.88 ± 4
239.92 K, Liquid	170.34 ± 4
240.92 K, Liquid	170.8 ± 4
241.89 K, Liquid	171.24 ± 4
242.89 K, Liquid	171.69 ± 4
243.86 K, Liquid	172.18 ± 4
244.85 K, Liquid	172.64 ± 4
245.82 K, Liquid	173.22 ± 4.1
246.81 K, Liquid	173.63 ± 4.1
247.77 K, Liquid	174.23 ± 4.1
248.76 K, Liquid	174.73 ± 4.1
249.72 K, Liquid	175.28 ± 4.1
250.7 K, Liquid	175.88 ± 4.1
251.66 K, Liquid	176.43 ± 4.1
252.64 K, Liquid	177.14 ± 4.1
253.59 K, Liquid	177.16 ± 4.1
254.57 K, Liquid	177.34 ± 4.1
255.52 K, Liquid	177.97 ± 4.2
256.5 K, Liquid	178.62 ± 4.2
257.44 K, Liquid	179.24 ± 4.2
258.43 K, Liquid	179.85 ± 4.2
259.36 K, Liquid	180.45 ± 4.2
260.34 K, Liquid	181.06 ± 4.2
261.27 K, Liquid	181.7 ± 4.2
262.25 K, Liquid	182.25 ± 4.2
263.18 K, Liquid	182.89 ± 4.2
264.15 K, Liquid	183.6 ± 4.3
265.08 K, Liquid	184.25 ± 4.3
266.04 K, Liquid	184.88 ± 4.3
266.97 K, Liquid	185.71 ± 4.3
267.93 K, Liquid	186.53 ± 4.3
268.85 K, Liquid	187.04 ± 4.3
269.81 K, Liquid	187.76 ± 4.3
270.72 K, Liquid	188.25 ± 4.4
271.68 K, Liquid	189.05 ± 4.4
272.59 K, Liquid	189.75 ± 4.4
273.55 K, Liquid	190.39 ± 4.4
274.46 K, Liquid	191.2 ± 4.4
275.41 K, Liquid	191.82 ± 4.4
276.31 K, Liquid	192.56 ± 4.5
277.26 K, Liquid	193.3 ± 4.5
278.16 K, Liquid	193.91 ± 4.5
279.11 K, Liquid	194.8 ± 4.5
280 K, Liquid	195.48 ± 4.5
280.94 K, Liquid	196.42 ± 4.5
281.83 K, Liquid	197.02 ± 4.5
282.77 K, Liquid	197.86 ± 4.5
283.66 K, Liquid	198.58 ± 4.6
284.6 K, Liquid	199.41 ± 4.6
285.47 K, Liquid	200.28 ± 4.6
286.41 K, Liquid	201.04 ± 4.6
287.29 K, Liquid	201.86 ± 4.6
288.22 K, Liquid	202.76 ± 4.7
289.09 K, Liquid	203.46 ± 4.7
290.02 K, Liquid	204.47 ± 4.7
290.89 K, Liquid	205.13 ± 4.7
291.81 K, Liquid	206.07 ± 4.7
292.67 K, Liquid	206.55 ± 4.7
293.6 K, Liquid	207.65 ± 4.8
294.46 K, Liquid	208.23 ± 4.8
295.38 K, Liquid	209.45 ± 4.8
296.23 K, Liquid	210.26 ± 4.8
297.15 K, Liquid	211.14 ± 4.8
298 K, Liquid	211.98 ± 4.8
298.92 K, Liquid	212.94 ± 4.9
299.76 K, Liquid	213.73 ± 4.9
300.68 K, Liquid	214.69 ± 4.9
